Experimental data as given in US20230332232A1, “COMPOSITIONS AND METHODS FOR DIAGNOSING AND TREATING A DYSTONIA” (Duke University, priority 2020, published 2023).

Tested on: DYT1 knockin (Tor1a^delGAG/+) murine embryonic fibroblasts (MEFs)
Assay: microRNA-seq of EVs from DYT1 MEFs treated with drug, compared with non-treated DYT1 MEFs
Format: cell-based, mouse
Settings: for Abs Z Score Sum (Geno + RTV) / RTV Direction Opposite dE?: EVs of DYT1 (Het) MEFs
Description: In addition to proteomic analysis, total RNA-seq and microRNA-seq was performed on RNA isolated in parallel from the EV samples of Cohort 2. As with the proteomic analysis, one biological replicate was prepared from 3 distinct biological clonal cell lines for each genotype. Here, EVs were isolated from conditioned cell culture media by 18 hour ultracentrifugation at 100,000 g. RNA was extracted using the Qiagen miRNeasy Micro Kit (Cat. No. 217084) according to the manufacturer's protocol. Two RNA fractions were extracted from each sample, one enriched in coding and non-coding RNA species>200 nt (“Total RNA” fraction) and one enriched for small RNAs<200 nt (“miRNA” fraction). RNA samples were then submitted to the Duke Sequencing and Genomic Technologies shared resource for further quality control and sequencing. Samples were assessed for concentration and integrity by Qubit and Fragment Analyzer. The miRNA fractions were 4.16 ng/μL-47.57 ng/μL and total RNA fractions were 3.8 ng/μL-43.6 ng/μL. The small RNA library was prepared using the QIAseq miRNA Library Kit (Cat No./ID: 331505) and sequenced on the Illumina NextSeq 500 High-Output platform with 75 bp single-reads. The total RNA library was prepared using the Illumina TruSeq Stranded Total RNA-seq Kit with Ribozero Gold ribosomal RNA reduction and sequenced on the Illumina NovaSeq 6000 S1 platform with 100 bp paired-end reads. Sequencer lane pooling and read depth are attached in the Excel data summary (See “RNA QC” Tab). Data processing and analysis were performed in collaboration with the Duke Genomic Analysis and Bioinformatics shared resource. RNA-seq data was processed using the TrimGalore toolkit (http://www.bioinformatics.babraham.ac.uk/projects/trim_galore), which employs Cutadapt(Martin M. (2011) EMBnet.journal. 17(1):10-12) to trim low quality bases and Illumina sequencing adapters from the 3' end of the reads. Only reads that were 20 nt or longer after trimming were kept for further analysis. Reads were mapped to the mouse genome and transcriptome ([…], et al. (2012) Nucleic Acids Res. 40(Database issue):[…]-97) using the STAR RNA-seq alignment tool (Dobin A, et al. (2013). Bioinformatics. 29(1):15-21). If the reads mapped to a single genomic location, then they were kept for subsequent analysis. Gene counts were compiled using the HTSeq tool (http://www-huber.embl.de/users/anders/HTSeq/). Only genes that had at least 10 reads in any given library were used in subsequent analysis. Normalization and differential expression was carried out using the DESeq26 Bioconductor (Huber W, et al. (2015) Nat Methods. 12(2):115-121) package with the R statistical programming environment (www.r-project.org). […] 694 miRNAs were initially examined with respect to QC, genotype, RTV effects, and ISRIB effects. This subset was the “Full miRNA” subset. FIG. 9A and FIG. 9B show the RTV effect on EV composition in DYT1 cells compared to WT cells for 279 miRNAs, respectively. […] Beginning with the 694 miRNAs in the “Full miRNA” subset, more than 60 molecules were detected in either WT cells or DYT1 cells (WT or Het UMI>60). […] The candidate miRNAs were ranked by the sum of genotype-dependent absolute Z-scores and RTV-induced absolute Z-scores (Abs Z Score Sum (Geno+RTV)). This subset was the “miRNA-Ritonavir Therapeutic Efficacy” subset and contained 201 miRNAs.

[1] = sum of genotype and RTV absolute Z-scores

CC(C)c1nc(CN(C)C(=O)N[C@H](C(=O)N[C@@H](Cc2ccccc2)C[C@H](O)[C@H](Cc2ccccc2)NC(=O)OCc2cncs2)C(C)C)cs1 [RTV, Ritonavir]
RTVvHet Z Score (mmu-miR-183-5p): 3.42 | Abs Z Score Sum (Geno + RTV) (mmu-miR-183-5p): 5.55 | RTV Direction Opposite dE? (mmu-miR-183-5p): yes | RTVvHet Z Score (mmu-miR-185-5p): 0.53 | RTVvHet Z Score (mmu-miR-186-5p): 0.33 | RTVvHet Z Score (mmu-miR-187-3p): 1.13 | Abs Z Score Sum (Geno + RTV) (mmu-miR-187-3p): 3.96 | RTV Direction Opposite dE? (mmu-miR-187-3p): yes | RTVvHet Z Score (mmu-miR-188-5p): 0.34 | RTVvHet Z Score (mmu-miR-190b-5p): 0.28 | RTVvHet Z Score (mmu-miR-191-5p): 0.28 | RTVvHet Z Score (mmu-miR-192-5p): 0.54 | Abs Z Score Sum (Geno + RTV) (mmu-miR-192-5p): 3.38 | RTV Direction Opposite dE? (mmu-miR-192-5p): yes | RTVvHet Z Score (mmu-miR-194-5p): 0.46 | RTVvHet Z Score (mmu-miR-199a-3p): 1.07 | RTV Direction Opposite dE? (mmu-miR-199a-3p): yes | RTVvHet Z Score (mmu-miR-199b-3p): 1.17 | RTV Direction Opposite dE? (mmu-miR-199b-3p): yes | RTVvHet Z Score (mmu-miR-206-3p): 0.20 | RTVvHet Z Score (mmu-miR-214-5p): 1.09 | RTVvHet Z Score (mmu-miR-219a-5p): 1.08 | RTVvHet Z Score (mmu-miR-223-3p): −0.59 | RTVvHet Z Score (mmu-miR-224-5p): 0.28 | RTVvHet Z Score (mmu-miR-296-3p): 3.08 | Abs Z Score Sum (Geno + RTV) (mmu-miR-296-3p): 5.10 | RTV Direction Opposite dE? (mmu-miR-296-3p): yes | RTVvHet Z Score (mmu-miR-298-5p): 3.59 | Abs Z Score Sum (Geno + RTV) (mmu-miR-298-5p): 6.72 | RTV Direction Opposite dE? (mmu-miR-298-5p): yes | RTVvHet Z Score (mmu-miR-299a-3p): 1.31 | RTVvHet Z Score (mmu-miR-301a-3p): 1.45 | RTVvHet Z Score (mmu-miR-301b-3p): 1.05 | RTVvHet Z Score (mmu-miR-320-3p): 0.76 | RTVvHet Z Score (mmu-miR-322-5p): 0.75 | RTVvHet Z Score (mmu-miR-324-3p): 0.82 | RTVvHet Z Score (mmu-miR-335-Sp): 1.02 | RTVvHet Z Score (mmu-miR-340-5p): 1.09 | RTVvHet Z Score (mmu-miR-344-3p): 1.30 | Abs Z Score Sum (Geno + RTV) (mmu-miR-344-3p): 4.24 | RTV Direction Opposite dE? (mmu-miR-344-3p): yes | RTVvHet Z Score (mmu-miR-350-3p): 0.41 | RTVvHet Z Score (mmu-miR-361-5p): 0.71 | RTVvHet Z Score (mmu-miR-362-3p): 1.05 | RTV Direction Opposite dE? (mmu-miR-362-3p): yes | RTVvHet Z Score (mmu-miR-362-5p): 0.83 | Abs Z Score Sum (Geno + RTV) (mmu-miR-362-5p): 3.62 | RTV Direction Opposite dE? (mmu-miR-362-5p): yes | RTVvHet Z Score (mmu-miR-378a-3p): 1.25 | RTVvHet Z Score (mmu-miR-450a-5p): 0.39 | RTVvHet Z Score (mmu-miR-450b-3p): 0.31 | RTVvHet Z Score (mmu-miR-451a): −1.37 | RTVvHet Z Score (mmu-miR-483-5p): 0.01 | RTVvHet Z Score (mmu-miR-500-3p): 1.09 | RTVvHet Z Score (mmu-miR-503-3p): 0.99 | RTVvHet Z Score (mmu-miR-532-5p): 0.52 | Abs Z Score Sum (Geno + RTV) (mmu-miR-532-5p): 3.77 | RTV Direction Opposite dE? (mmu-miR-532-5p): yes | RTVvHet Z Score (mmu-miR-542-3p): 0.81 | RTVvHet Z Score (mmu-miR-542-5p): 2.00 | Abs Z Score Sum (Geno + RTV) (mmu-miR-542-5p): 7.20 | RTV Direction Opposite dE? (mmu-miR-542-5p): yes | RTVvHet Z Score (mmu-miR-582-3p): 0.20 | RTVvHet Z Score (mmu-miR-652-3p): 0.93 | RTVvHet Z Score (mmu-miR-671-5p): 1.76 | RTV Direction Opposite dE? (mmu-miR-671-5p): yes | RTVvHet Z Score (mmu-miR-700-3p): 0.49 | RTVvHet Z Score (mmu-miR-708-5p): 1.28 | RTVvHet Z Score (mmu-miR-872-5p): 0.68 | RTVvHet Z Score (mmu-miR-1291): 1.91 | Abs Z Score Sum (Geno + RTV) (mmu-miR-1291): 3.34 | RTV Direction Opposite dE? (mmu-miR-1291): yes | RTVvHet Z Score (mmu-miR-1843a-5p): 0.28 | RTVvHet Z Score (mmu-miR-3102-3p): 0.95 | RTVvHet Z Score (mmu-miR-3535): 1.43 | Abs Z Score Sum (Geno + RTV) (mmu-miR-3535): 3.67 | RTV Direction Opposite dE? (mmu-miR-3535): yes | RTVvHet Z Score (mmu-miR-5121): 2.65 | Abs Z Score Sum (Geno + RTV) (mmu-miR-5121): 4.47 | RTV Direction Opposite dE? (mmu-miR-5121): yes | Abs Z Score Sum (Geno + RTV) (mmu-miR-30h-5p): 3.25 | RTV Direction Opposite dE? (mmu-miR-30h-5p): yes | RTVvHet Z Score (mmu-miR-30d-5p): 0.70 | RTVvHet Z Score (mmu-miR-344d-3p): 1.98 | Abs Z Score Sum (Geno + RTV) (mmu-miR-344d-3p): 4.51 | RTV Direction Opposite dE? (mmu-miR-344d-3p): yes | mmu-miR-147-5p: Abs Z Score Sum (Geno + RTV) [1]: 0.20 | mmu-miR-181a-1-3p: Abs Z Score Sum (Geno + RTV) [1]: 0.18 | mmu-miR-331-5p: Abs Z Score Sum (Geno + RTV) [1]: 0.00 | mmu-miR-668-3p: Abs Z Score Sum (Geno + RTV) [1]: 0.42 | mmu-miR-1930-5p: Abs Z Score Sum (Geno + RTV) [1]: 0.38 | mmu-miR-1943-5p: Abs Z Score Sum (Geno + RTV) [1]: 0.23 | mmu-miR-1955-5p: Abs Z Score Sum (Geno + RTV) [1]: 0.00 | mmu-miR-3072-5p: Abs Z Score Sum (Geno + RTV) [1]: 0.38 | mmu-miR-3076-3p: Abs Z Score Sum (Geno + RTV) [1]: 0.00 | mmu-miR-3088-3p: Abs Z Score Sum (Geno + RTV) [1]: 0.18 | mmu-miR-6936-3p: Abs Z Score Sum (Geno + RTV) [1]: 0.38 | mmu-miR-7224-3p: Abs Z Score Sum (Geno + RTV) [1]: 0.22 | mmu-miR-467d-3p: Abs Z Score Sum (Geno + RTV) [1]: 0.32
